In patent publication US6670339B1, “Use of sulfated oligosaccharides in lowering blood triglyceride levels” (The Australian National University, priority 1997, dated 2003):

Key:
[1] = tested on: blood triglyceride levels; assay: Blood triglyceride levels in Fisher rats after 7 days of twice daily s.c. injection; format: in vivo; conditions: female Fisher rats, blood on day 8, control 1.43±0.13
Procedure: 1. Nine 10 week old female Fisher rats were treated with the sulfated mannopentaose phosphate or saline over a 7 day period as follows. On […] the rats were weighed and placed into three groups of three rats based on weight. On every subsequent morning their weights were recorded. Each morning beginning on day 1 at approximately 8.00 AM and evening at approximately 8.00 PM the rats were injected in the following manner. The control group received sterile normal saline solution 100 μl s.c. One treatment group received the sulfated mannopentaose phosphate at a dose of 10 mg/kg s.c. in an injection volume of 100 μl of sterile saline solution. Thus, each rat in this group received a total daily dose of 20 mg/kg. Animals in the second treatment group received the sulfated mannopentaose phosphate at a dose of 50 mg/kg s.c. in an injection volume of 100 μl of sterile saline solution. Thus, each rat in this group received a total daily dose of 100 mg/kg. This injection routine was repeated for a total of 7 days.
On the morning of day 8 of the experiment, the rats were anaesthetised and blood was taken for triglyceride analysis. Triglyceride levels were determined using a commercially available assay kit (Sigma, Triglyceride—GPO-Trinder). […]

[2] = tested on: serum triglyceride levels; assay: Serum triglyceride levels in mice 2 hours after a single s.c. dose (dose response); format: in vivo, CBA/h female mice; conditions: single s.c. doses of 10 mg/kg and above (10, 20, 50, 100 mg/kg), 2 hours after injection
Procedure: FIG. 2. Effect of different single doses of sulfated mannopentaose phosphate (PI-88) (10-100 mg/kg) on serum triglyceride levels 2 hours following s.c. injection. Data presented as group means±SEM (n=4).
Thus, 20 CBA/h female mice 8-10 weeks old were weighed and placed into five groups, containing four mice each based on weight. The control group was injected with sterile normal saline solution 100 μl s.c. The respective treatment groups were injected with sulfated mannopentaose phosphate at doses of 10, 20, 50 or 100 mg/kg s.c. in a volume of 100 μl of sterile normal saline solution. Two hours following injection, mice were anaesthetised and blood was collected via cardiac puncture and allowed to clot and serum triglyceride levels were measured using a commercially available kit (Sigma, Triglyceride—GPO-Trinder).

[3] = tested on: serum triglyceride levels; assay: Time course of serum triglyceride levels in mice after a single s.c. dose; format: in vivo, CBA/h female mice; conditions: single 50 mg/kg s.c.
Procedure: FIG. 1. Time course of the effect of a single s.c. dose (50 mg/kg) of sulfated mannopentaose phosphate (PI-88) on serum triglyceride levels, as measured by the Sigma triglyceride assay. Data presented as group means±SEM (n=4).
Thus, 32 CBA/h female mice 8-10 weeks old were weighed and placed into eight groups, containing four mice each based on weight. The control group was injected with sterile normal saline solution 100 μl s.c. All the treatment groups were injected with sulfated mannopentaose at a dose of 50 mg/kg s.c. in a volume of 100 μl of sterile normal saline solution. At 0.5, 1, 2, 3, 6, 24 and 48 hours following injection mice were anaesthetised and blood was collected via cardiac puncture and allowed to clot and serum triglyceride levels were measured using a commercially available kit (Sigma, Triglyceride—GPO-Trinder).

Substance: sulfated mannopentaose phosphate [PI-88 (15 SO4/molecule)]
- blood triglyceride levels ([1]; 20 mg/kg/day s.c. (10 mg/kg twice daily)): 0.3 ± 0.12 mmol/L
- blood triglyceride levels ([1]; 100 mg/kg/day s.c. (50 mg/kg twice daily)): 0.1 ± 0.0 mmol/L
- reduction in blood triglyceride levels, in words [2]: significant reduction
- time to significant reduction in blood triglyceride levels [3]: ≤ 0.5 h
- time until which triglyceride levels continued to fall (maximum lowering) [3]: 2 h
- triglyceride levels versus controls, in words ([3]; 6 hours after injection): significantly lower than controls
- triglyceride levels versus controls, in words ([3]; 24 hour time point): returning to normal
